Like-named read-outs stand apart in the source and are kept apart here.
Test system: patient experiencing an allergic emergency (anaphylaxis)
Conditions: no amelioration after approx. 5 minutes, same device, within about five minutes after second dose
Procedure: Administration of a first and second injectable dosage form comprising an epinephrine solution for the treatment of anaphylaxis
A patient weighing approximately 15 Kg experiencing an allergic emergency whereupon a caretaker initiates treatment at the onset of shortness of breath by administering to the patient an auto-injection of a first dose of an epinephrine solution comprising 0.1 mg of epinephrine intramuscularly.
A patient weighing approximately 25 Kg experiencing an allergic emergency initiates treatment at the onset of shortness of breath by self administering a manual injection of a first dose of an epinephrine solution comprising 0.125 mg of epinephrine intramuscularly.
A patient weighing approximately 90 Kg experiencing an allergic emergency initiates treatment at the onset of shortness of breath by self administering an auto-injection of a first dose of an epinephrine solution comprising 0.6 mg of epinephrine subcutaneously.
A patient weighing approximately 110 Kg experiencing an allergic emergency initiates treatment at the onset of shortness of breath by self administering an auto-injection of a first dose of an epinephrine solution comprising 0.75 mg of epinephrine intramuscularly.

SMILES: CNC[C@H](O)c1ccc(O)c(O)c1 [epinephrine]
- patient's symptoms of anaphylaxis after the second injectable dose (Example 1: patient approx. 15 Kg, first dose 0.1 mg auto-injection intramuscularly, second dose 0.15 mg manual intramuscularly): symptoms of anaphylaxis are relieved or are at an acceptable level for transporting the patient to a physician
- patient's symptoms of anaphylaxis after the second injectable dose (Example 2: patient approx. 25 Kg, first dose 0.125 mg manual intramuscularly, second dose 0.125 mg manual intramuscularly): symptoms of anaphylaxis are relieved or are at an acceptable level for transporting the patient to a physician
- patient's symptoms of anaphylaxis after the second injectable dose (Example 3: patient approx. 90 Kg, first dose 0.6 mg auto-injection subcutaneously, second dose 0.75 mg manual intramuscularly): symptoms of anaphylaxis are relieved or are at an acceptable level for transporting the patient to a physician
- patient's symptoms of anaphylaxis after the second injectable dose (Example 4: patient approx. 110 Kg, first dose 0.75 mg auto-injection intramuscularly, second dose 1.0 mg auto-injector intramuscularly): symptoms of anaphylaxis are relieved or are at an acceptable level for transporting the patient to a physician

— patent publication US20070203247A1, “E[…] REGIMENS” (priority 2006, published 2007)
